Data on three compounds can be found in publication PMC6823631 (Journal of immunology (Baltimore, Md. : 1950), 2019).

What all share (experiment): fluorescence quenching titration of antibody tryptophan
The target of assay [1] is IgE. The class given is binding.
Assay [2] deals with anti-dansyl IgE (IgE^dansyl, clone 27-74). The class given is binding.
The target of assay [3] is penicillin G specific IgG (IgG^Pen, monoclonal antibody clone P2B9). The class given is binding, Mus musculus.

In assay [1], `O=C(O)Cc1ccc2ccccc2c1` [Napht, 2-naphteleneacetic acid] came in with a Kd of 1800 ± 300 nM.

dansyl gave a Kd in assay [2] of 29.9 ± 10 nM.

In assay [3], Benzylpenicilloyl yielded a Kd of 20000 ± 4000 nM.

The term Kd denotes the equilibrium constant for the complex coming apart. Higher therefore signals lower affinity.
